Laboratory results from PubChem BioAssay AID2060900 (Molecular Pharmacology Branch, DTP, NCI, 2025).

Tested on: 521955-158-R2-J5-PDC complex spheroids, viability
Test: Anticancer human tumor 521955-158-R2-J5-PDC patient-derived pancreatic carcinoma cell line growth inhibition [RAS]
Conditions: for viability, T/C: stronger effect = lower value
Procedure, shortened: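 Tumour cells grown as complex spheroids with HUVEC endothelial cells and mesenchymal stem cells, treated with RAS pathway inhibitor combinations. Each agent spans half-log steps from near clinical Cmax, or 10 microM where Cmax is unknown.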

[1] = curve of first compound, second compound 0.0316 µM
[2] = curve of first compound, second compound 0.1 µM
[3] = curve of first compound, second compound 0.316 µM
[4] = curve of first compound, second compound 1 µM
[5] = second compound 0.0316 µM, first compound 0.0316 µM
[6] = second compound 0.0316 µM, first compound 0.1 µM
[7] = second compound 0.0316 µM, first compound 0.316 µM
[8] = second compound 0.0316 µM, first compound 1 µM
[9] = second compound 0.1 µM, first compound 0.0316 µM
[10] = second compound 0.1 µM, first compound 0.1 µM
[11] = second compound 0.1 µM, first compound 0.316 µM
[12] = second compound 0.1 µM, first compound 1 µM
[13] = second compound 0.316 µM, first compound 0.0316 µM
[14] = second compound 0.316 µM, first compound 0.1 µM
[15] = second compound 0.316 µM, first compound 0.316 µM
[16] = second compound 0.316 µM, first compound 1 µM
[17] = second compound 1 µM, first compound 0.0316 µM
[18] = second compound 1 µM, first compound 0.1 µM
[19] = second compound 1 µM, first compound 0.316 µM
[20] = second compound 1 µM, first compound 1 µM
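Further: compound exposure lasted seven days before the viability read.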
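Wherever viability, T/C is given: spheroids also contain HUVEC endothelial cells and mesenchymal stem cells as stroma.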

Compound: C[C@@H](NC(=O)c1ncnc(N)c1Cl)c1ncc(C(=O)Nc2cc(C(F)(F)F)c(Cl)cn2)s1 + C=CC(=O)N1CCN(c2nc(OCC3CCCN3C)nc3c(F)c(-c4nc(N)cc(C)c4C(F)(F)F)c(Cl)cc23)C(C)C1
- IC50 (curve of first compound, second compound 0.00316 µM): > 10 µM
- IC50 (curve of first compound, second compound 0.01 µM): > 10 µM
- IC50 [1]: > 10 µM
- IC50 [2]: > 10 µM
- IC50 [3]: > 10 µM
- IC50 [4]: 6.75 µM
- viability, T/C (second compound 0.00316 µM, first compound 0.0316 µM): 105%
- viability, T/C (second compound 0.00316 µM, first compound 0.1 µM): 90.8%
- viability, T/C (second compound 0.00316 µM, first compound 0.316 µM): 103%
- viability, T/C (second compound 0.00316 µM, first compound 1 µM): 103%
- viability, T/C (second compound 0.00316 µM, first compound 3.16 µM): 89.3%
- viability, T/C (second compound 0.00316 µM, first compound 10 µM): 56.3%
- viability, T/C (second compound 0.01 µM, first compound 0.0316 µM): 107%
- viability, T/C (second compound 0.01 µM, first compound 0.1 µM): 134%
- viability, T/C (second compound 0.01 µM, first compound 0.316 µM): 84.8%
- viability, T/C (second compound 0.01 µM, first compound 1 µM): 130%
- viability, T/C (second compound 0.01 µM, first compound 3.16 µM): 82.9%
- viability, T/C (second compound 0.01 µM, first compound 10 µM): 60.2%
- viability, T/C [5]: 101%
- viability, T/C [6]: 138%
- viability, T/C [7]: 92.8%
- viability, T/C [8]: 129%
- viability, T/C (second compound 0.0316 µM, first compound 3.16 µM): 80.7%
- viability, T/C (second compound 0.0316 µM, first compound 10 µM): 53.2%
- viability, T/C [9]: 144%
- viability, T/C [10]: 132%
- viability, T/C [11]: 112%
- viability, T/C [12]: 86.5%
- viability, T/C (second compound 0.1 µM, first compound 3.16 µM): 73.1%
- viability, T/C (second compound 0.1 µM, first compound 10 µM): 54.8%
- viability, T/C [13]: 164%
- viability, T/C [14]: 179%
- viability, T/C [15]: 96%
- viability, T/C [16]: 96.2%
- viability, T/C (second compound 0.316 µM, first compound 3.16 µM): 79.5%
- viability, T/C (second compound 0.316 µM, first compound 10 µM): 57.1%
- viability, T/C [17]: 198%
- viability, T/C [18]: 93.3%
- viability, T/C [19]: 88.5%
- viability, T/C [20]: 76.5%
- viability, T/C (second compound 1 µM, first compound 3.16 µM): 74.2%
- viability, T/C (second compound 1 µM, first compound 10 µM): 56.6%

Compound: C=CC(=O)N1CCN(c2nc(OCC3CCCN3C)nc3c(F)c(-c4nc(N)cc(C)c4C(F)(F)F)c(Cl)cc23)C(C)C1 (stereo not given)
- IC50 (compound alone, run of 06/10/2024): > 1 µM
- IC50 (curve of compound): > 1 µM

Compound: CC(C)n1nc(-c2ccc3oc(N)nc3c2)c2c(N)ncnc21
- viability, T/C (compound 0.000316 µM): 94.1% [middle of 4 runs]
- viability, T/C (compound 0.001 µM): 101% [middle of 4 runs]
- viability, T/C (compound 0.00316 µM): 96.2% [middle of 4 runs]
- viability, T/C (compound 0.01 µM): 65.3% [middle of 4 runs]
- viability, T/C (compound 0.0316 µM): 44.3% [middle of 4 runs]
- viability, T/C (compound 0.1 µM): 37% [middle of 4 runs]
- IC50 (curve of compound): 21.3 nM [middle of 4 runs]

Compound: CC(C)NCC(C(=O)N1CCN(c2ncnc3c2C(C)CC3O)CC1)c1ccc(Cl)cc1 (stereo not given)
- viability, T/C (compound 0.0316 µM): 97.9% [middle of 4 runs]
- viability, T/C (compound 0.1 µM): 99.3% [middle of 4 runs]
- viability, T/C (compound 0.316 µM): 96% [middle of 4 runs]
- viability, T/C (compound 1 µM): 60.5% [middle of 4 runs]
- viability, T/C (compound 3.16 µM): 75.7% [middle of 4 runs]
- viability, T/C (compound 10 µM): 72.5% [middle of 4 runs]
- IC50 (curve of compound): > 10 µM

Compound: CCN1CCN(Cc2ccc(Nc3ncc(F)c(-c4cc(F)c5nc(C)n(C(C)C)c5c4)n3)nc2)CC1 + C#Cc1c(F)ccc2cc(O)cc(-c3ncc4c(N5CC6CCC(C5)N6)nc(OCC56CCCN5CC(F)C6)nc4c3F)c12
- IC50 [1]: > 1 µM
- IC50 [2]: > 1 µM
- IC50 [3]: > 1 µM
- IC50 [4]: 0.316 µM
- IC50 (curve of first compound, second compound 3.16 µM): < 0.00316 µM
- IC50 (curve of first compound, second compound 10 µM): < 0.00316 µM
- viability, T/C (second compound 0.0316 µM, first compound 0.00316 µM): 66.7%
- viability, T/C (second compound 0.0316 µM, first compound 0.01 µM): 69.4%
- viability, T/C [5]: 57.5%
- viability, T/C [6]: 73.8%
- viability, T/C [7]: 71.5%
- viability, T/C [8]: 72.8%
- viability, T/C (second compound 0.1 µM, first compound 0.00316 µM): 46%
- viability, T/C (second compound 0.1 µM, first compound 0.01 µM): 65.2%
- viability, T/C [9]: 59.2%
- viability, T/C [10]: 61.2%
- viability, T/C [11]: 65.9%
- viability, T/C [12]: 66.6%
- viability, T/C (second compound 0.316 µM, first compound 0.00316 µM): 61.2%
- viability, T/C (second compound 0.316 µM, first compound 0.01 µM): 53.5%
- viability, T/C [13]: 46.9%
- viability, T/C [14]: 52.9%
- viability, T/C [15]: 51.1%
- viability, T/C [16]: 67.9%
- viability, T/C (second compound 1 µM, first compound 0.00316 µM): 58.5%
- viability, T/C (second compound 1 µM, first compound 0.01 µM): 56.4%
- viability, T/C [17]: 58%
- viability, T/C [18]: 45.5%
- viability, T/C [19]: 49.5%
- viability, T/C [20]: 56.1%
- viability, T/C (second compound 3.16 µM, first compound 0.00316 µM): 50.2%
- viability, T/C (second compound 3.16 µM, first compound 0.01 µM): 44.8%
- viability, T/C (second compound 3.16 µM, first compound 0.0316 µM): 47.8%
- viability, T/C (second compound 3.16 µM, first compound 0.1 µM): 42.6%
- viability, T/C (second compound 3.16 µM, first compound 0.316 µM): 59.9%
- viability, T/C (second compound 3.16 µM, first compound 1 µM): 51%
- viability, T/C (second compound 10 µM, first compound 0.00316 µM): 39.7%
- viability, T/C (second compound 10 µM, first compound 0.01 µM): 37.2%
- viability, T/C (second compound 10 µM, first compound 0.0316 µM): 30.9%
- viability, T/C (second compound 10 µM, first compound 0.1 µM): 31.4%
- viability, T/C (second compound 10 µM, first compound 0.316 µM): 36%
- viability, T/C (second compound 10 µM, first compound 1 µM): 24.7%
